Experimental data reported in patent US6861445B2, “3-Substituted-3-(substitutedsulfonyl or sulfanyl)pyrrolidine-2,5-diones useful for inhibition of farnesyl-protein transferase” (Wyeth Holdings Corporation, priority 2001, dated 2005).

Tests used:
FPTase (H-Ras substrate) = FPTase (H-Ras substrate) (Homo sapiens, UniProt P49354+P49356); assay: in vitro FTase Inhibition Assay, H-Ras as substrate for farnesylation; format: biochemical; settings: H-Ras used as substrate for farnesylation
Protocol: (§1) The ability of the compounds of this invention to inhibit FPTase was evaluated in the standard pharmacological in vitro test procedures described below.
(§2) Enzyme test procedure: FPTase inhibition in vitro assay was performed according to James, G. L., Brown, M. S., and Goldstein, J. L., Methods in Enzymology, 1995, 255, 38-46; and Garcia, M. A., et al., J. Biol. Chem., 1993, 268, 18415-18420.
(§3) • Materials—Purified FPTase (Moomaw, J. F. and Casey, P. J., J. Biol. Chem., 1992, 267, 17438-17443), purified His6-Ras, inhibitor compounds at 10 mg/ml or 10 mM in 100% DMSO, ^3H-FPP (50,000 dpm/pmol) Amersham, TCA/SDS (6%/2%), TCA (6%), Glass fiber filters (0.22-0.45 m), vacuum manifold or 96 well filtration plates. • Methods—1. Dilute FPTase inhibitors from stock solutions to 2.5× in 2.5% DMSO, 10 mM DTT, 0.5% octyl-B-glucoside. 2. Solution #1 is added to FPTase reaction in a volume of […]. 3. Standard reaction mix, […], contains 50 mM Tris (7.5),[…], 3 mM MgCl2, 20 mM KCl, 5 mM DTT, 0.2% octyl-B-glucoside, 1% DMSO, […] His6-Ras, 10 ng FPTase, and various concentrations of FPTase inhibitors. 4. Incubate for 30-90 min at 25° C. 5. […] Add scintillant to filters, measure ^3H-FPP incorporation into Ras protein. • Analysis of Results—Percent inhibition by test compounds is determined by the following: […]. […]

FPTase (K-Ras substrate) = FPTase (K-Ras substrate) (Homo sapiens, UniProt P49354+P49356); assay: in vitro FTase Inhibition Assay, K-Ras as substrate for farnesylation; format: biochemical; settings: K-Ras used as substrate for farnesylation
Protocol: as §1, §2, §3

Compound	IC50 (FPTase (H-Ras substrate)) [nM]	IC50 (FPTase (K-Ras substrate)) [nM]	melting point [°C]
COc1ccc(S(=O)(=O)C2(CCCC#Cc3ccc(Cl)cc3)CC(=O)NC2=O)cc1 (stereo not shown) [3-[5-(4-Chlorophenyl)pent-4-ynyl]-3-(4-methoxybenzenesulfonyl)-pyrrolidine-2,5-dione]	140	> 1000	160 to 162
Cc1ccc(S(=O)(=O)C2(CC#Cc3ccc(Cl)cc3)CC(=O)NC2=O)cc1 (stereo not shown) [3-[-3-(4-Chlorophenyl)prop-2-ynyl]-3-(toluene-4-sulfonyl)pyrrolidine-2,5-dione]	6500		
